Laboratory results: patent US9206156B2, “Substituted indole derivatives” (GRÜNENTHAL GMBH, priority 2008, dated 2015)

How the values were obtained:
human μ-opiate receptor = target: T1, human μ-opiate receptor (Homo sapiens, UniProt P35372); assay: μ-opiate receptor binding assay with [3H] naloxone (WGA-SPA beads); details: 1 μmol/l test substance, 1 nmol/l [3H] naloxone, CHO-K1 cell membranes expressing human μ-opiate receptor
T1 construct: purchased NEN, Zaventem, Belgium RB-HOM; host or cells: CHO-K1 cells (membrane preparation)
Method: The receptor affinity to the human μ-opiate receptor was determined in a homogeneous batch in microtitre plates. To this end, dilution series of the substituted indole derivative to be tested were incubated for 90 minutes at room temperature with a receptor membrane preparation (15-40 μg protein per 250 μl incubation batch) of CHO-K1 cells, which express the human μ-opiate receptor (RB—HOM receptor membrane preparation from NEN, Zaventem, Belgium), in the presence of 1 nmol/l of the radioactive ligand [^3H] naloxone (NET719, NEN, Zaventem, Belgium) and 1 mg of WGA-SPA beads (wheat germ agglutinin SPA beads from Amersham/Pharmacia, Freiburg, Germany) in a total volume of 250 μl. 50 mmol/l tris-HCl supplemented with 0.05 wt. % sodium azide and 0.06 wt. % bovine serum albumin were used as the incubation buffer. In order to determine the non-specific binding, 25 μmol/l of naloxone were also added. At the end of the ninety-minute incubation period the microtitre plates were centrifuged for 20 minutes at 1000 g and the radioactivity was measured in a β counter (Microbeta-Trilux, PerkinElmer Wallac, Freiburg, Germany). The percentage displacement of the radioactive ligand from its binding to the human μ-opiate receptor was determined at a test substance concentration of 1 μmol/l and stated as the percentage inhibition (% inhibition) of the specific binding. In some cases the percentage displacement due to differing concentrations of the compounds having the general formula I to be tested was used to calculate the IC50 inhibition concentrations which bring about a 50-percent displacement of the radioactive ligand. Ki values for the test substances were obtained by extrapolation using the Cheng-Prusoff equation.

ORL1 receptor = target: T2, ORL1 receptor (Homo sapiens, UniProt P41146); assay: ORL1 receptor binding assay with 3H-nociceptin/orphanin FQ (WGA-SPA beads); details: c=1 μM test substance; 0.5 nM 3H-nociceptin/orphanin FQ; membranes of recombinant CHO-ORL1 cells
T2 construct: expressed in transfected cells; host or cells: CHO (recombinant CHO-ORL1 cells), membranes
Method: Measurement of ORL1 Binding
The cyclohexane derivatives having the general formula I were investigated in a receptor binding assay with ^3H-nociceptin/orphanin FQ with membranes of recombinant CHO—ORL1 cells. This test system was conducted in accordance with the method described by Ardati et al. (Mol. Pharmacol., 51, 1997, p. 816-824). The concentration of ^3H-nociceptin/orphanin FQ in these tests was 0.5 nM. The binding assays were carried out with 20 μg amounts of membrane protein per 200 μl batch in 50 mM Hepes, pH 7.4, 10 mM MgCl2 and 1 mM EDTA. The binding to the ORL1 receptor was determined using 1 mg amounts of WGA-SPA beads (Amersham-Pharmacia, Freiburg, Germany), by incubation of the batch for one hour at room temperature and subsequent measurement in a Trilux scintillation counter (Wallac, Finland). The affinity is given in Table 1 as the nanomolar Ki value or in % inhibition at c=1 μM.

T2 sequence (P41146 whole entry): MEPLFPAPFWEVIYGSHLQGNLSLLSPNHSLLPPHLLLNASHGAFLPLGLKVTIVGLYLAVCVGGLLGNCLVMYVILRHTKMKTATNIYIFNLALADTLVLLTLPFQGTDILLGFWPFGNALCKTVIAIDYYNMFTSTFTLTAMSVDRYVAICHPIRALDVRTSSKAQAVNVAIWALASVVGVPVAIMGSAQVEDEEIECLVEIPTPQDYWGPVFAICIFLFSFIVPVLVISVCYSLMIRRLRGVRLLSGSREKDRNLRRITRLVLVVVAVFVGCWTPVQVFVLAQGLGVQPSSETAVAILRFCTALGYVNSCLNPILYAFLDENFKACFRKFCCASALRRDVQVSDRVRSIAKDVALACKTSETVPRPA
T1 sequence (P35372 whole entry): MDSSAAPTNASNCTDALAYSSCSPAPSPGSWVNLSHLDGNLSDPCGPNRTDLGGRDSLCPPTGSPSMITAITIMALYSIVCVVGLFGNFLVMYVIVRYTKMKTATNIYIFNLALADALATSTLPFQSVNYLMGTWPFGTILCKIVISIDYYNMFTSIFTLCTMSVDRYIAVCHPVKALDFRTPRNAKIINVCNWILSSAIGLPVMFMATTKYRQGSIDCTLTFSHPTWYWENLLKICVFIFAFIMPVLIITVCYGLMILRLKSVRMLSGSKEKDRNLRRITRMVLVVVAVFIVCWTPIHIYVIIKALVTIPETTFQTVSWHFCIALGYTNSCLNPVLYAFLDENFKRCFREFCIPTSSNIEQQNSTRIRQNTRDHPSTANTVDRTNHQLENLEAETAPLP

| Structure (SMILES) | inhibition at 1 µM (human μ-opiate receptor) [%] | inhibition at 1 µM (ORL1 receptor) [%] | % Inhibition (μ) at 1 μM (human μ-opiate receptor) [%] | % Inhibition (ORL1) at 1 μM (ORL1 receptor) [%] | % Inhibition (μ) at 1 μM (human μ-opiate receptor; 1 µM) [%] |
| --- | --- | --- | --- | --- | --- |
| CCCCC1(N(C)C)CCN(CCN(C)C(=O)c2cccc3c2ccn3C)CC1 [Example 41, N-(2-(4-Butyl-4-(dimethylamino)piperidin-1-yl)ethyl)-N,1-dimethyl-1H-indole-4-carboxamide] | 63 | 17 | – | – | – |
| CN(CCN1CCC(c2ccccc2)(N2CCCC2)CC1)C(=O)C1CCCc2c1[nH]c1ccc(Cl)cc21 (stereo not shown) [Example 42, 6-Chloro-N-methyl-N-(2-(4-phenyl-4-(pyrrolidin-1-yl)piperidin-1-yl)ethyl)-2,3,4,9-tetrahydro-1H-carbazole-1-carboxamide] | 28 | 22 | – | – | – |
| CCCCC1(N(C)C)CCN(CCN(C)C(=O)C2CCCc3c2[nH]c2ccc(Cl)cc32)CC1 (stereo not shown) [Example 43, N-(2-(4-Butyl-4-(dimethylamino)piperidin-1-yl)ethyl)-6-chloro-N-methyl-2,3,4,9-tetrahydro-1H-carbazole-1-carboxamide] | 54 | 21 | – | – | – |
| CCCCC1(N(C)C)CCN(CCN(C)C(=O)Cc2c[nH]c3cc(F)ccc23)CC1 [Example 44, N-(2-(4-Butyl-4-(dimethylamino)piperidin-1-yl)ethyl)-2-(6-fluoro-1H-indol-3-yl)-N-methylacetamide] | – | – | 92 | 50 | – |
| CN(CCCN1CCC(c2ccccc2)(N(C)C)CC1)C(=O)Cc1c[nH]c2cc(F)ccc12 [Example 45, N-(3-(4-(Dimethylamino)-4-phenylpiperidin-1-yl)propyl)-2-(6-fluoro-1H-indol-3-yl)-N-methylacetamide] | 82 | 49 | – | – | – |
| CCCCC1(N(C)C)CCN(CCN(C)C(=O)CCc2cn(C)c3ccccc23)CC1 [Example 49, N-(2-(4-Butyl-4-(dimethylamino)piperidin-1-yl)ethyl)-N-methyl-3-(1-methyl-1H-indol-3-yl)propanamide] | 52 | 17 | – | – | – |
| CN(CCCN1CCC(c2ccccc2)(N(C)C)CC1)C(=O)CCc1cn(C)c2ccccc12 [Example 50, N-(3-(4-(Dimethylamino)-4-phenylpiperidin-1-yl)propyl)-N-methyl-3-(1-methyl-1H-indol-3-yl)propanamide] | 79 | 39 | – | – | – |
| CN(CCN1CCC(c2ccccc2)(N2CCCC2)CC1)C(=O)c1cc2cc(F)ccc2[nH]1 [Example 51, 5-Fluoro-N-methyl-N-(2-(4-phenyl-4-(pyrrolidin-1-yl)piperidin-1-yl)ethyl)-1H-indole-2-carboxamide] | 43 | 26 | – | – | – |
| CCCCC1(N(C)C)CCN(CCN(C)C(=O)c2cc3cc(F)ccc3[nH]2)CC1 [Example 52, N-(2-(4-Butyl-4-(dimethylamino)piperidin-1-yl)ethyl)-5-fluoro-N-methyl-1H-indole-2-carboxamide] | 65 | 28 | – | – | – |
| CN(CCCN1CCC(c2ccccc2)(N(C)C)CC1)C(=O)c1cc2cc(F)ccc2[nH]1 [Example 53, N-(3-(4-(Dimethylamino)-4-phenylpiperidin-1-yl)propyl)-5-fluoro-N-methyl-1H-indole-2-carboxamide] | 90 | 73 | – | – | – |
| CN(CCCN1CCC(c2ccccc2)(N(C)C)CC1)C(=O)c1ccc2cc[nH]c2c1 [Example 56, N-(3-(4-(Dimethylamino)-4-phenylpiperidin-1-yl)propyl)-N-methyl-1H-indole-6-carboxamide] | 71 | 35 | – | – | – |
| CCCCC1(N(C)C)CCN(CCN(C)C(=O)CC(C)c2c[nH]c3ccccc23)CC1 (stereo not shown) [Example 58, N-(2-(4-Butyl-4-(dimethylamino)piperidin-1-yl)ethyl)-3-(1H-indol-3-yl)-N-methylbutanamide] | 77 | 20 | – | – | – |
| CC(CC(=O)N(C)CCCN1CCC(c2ccccc2)(N(C)C)CC1)c1c[nH]c2ccccc12 (stereo not shown) [Example 59, N-(3-(4-(Dimethylamino)-4-phenylpiperidin-1-yl)propyl)-3-(1H-indol-3-yl)-N-methylbutanamide] | 86 | 60 | – | – | – |
| CCCCC1(N(C)C)CCN(CCN(C)C(=O)CCc2c[nH]c3ccccc23)CC1 [Example 60, N-(2-(4-Butyl-4-(dimethylamino)piperidin-1-yl)ethyl)-3-(1H-indol-3-yl)-N-methylpropanamide] | 81 | 45 | – | – | – |
| CN(CCCN1CCC(c2ccccc2)(N(C)C)CC1)C(=O)CCc1c[nH]c2ccccc12 [Example 61, N-(3-(4-(Dimethylamino)-4-phenylpiperidin-1-yl)propyl)-3-(1H-indol-3-yl)-N-methylpropanamide] | 89 | 65 | – | – | – |
| CN(CCN1CCC(c2ccccc2)(N2CCCC2)CC1)C(=O)Cc1c[nH]c2ccc(Br)cc12 [Example 62, 2-(5-Bromo-1H-indol-3-yl)-N-methyl-N-(2-(4-phenyl-4-(pyrrolidin-1-yl)piperidin-1-yl)ethyl)acetamide] | 57 | 14 | – | – | – |
| CN(CCCN1CCC(c2ccccc2)(N(C)C)CC1)C(=O)Cc1c[nH]c2ccc(Br)cc12 [Example 63, 2-(5-Bromo-1H-indol-3-yl)-N-(3-(4-(dimethylamino)-4-phenylpiperidin-1-yl)propyl)-N-methylacetamide] | 81 | 41 | – | – | – |
| COc1ccc2[nH]c(C(=O)N(C)CCCN3CCC(c4ccccc4)(N(C)C)CC3)cc2c1 [Example 66, N-(3-(4-(Dimethylamino)-4-phenylpiperidin-1-yl)propyl)-5-methoxy-N-methyl-1H-indole-2-carboxamide] | 71 | 33 | – | – | – |
| CC(C)c1ccc2c(CN(C)CCCN3CCC(c4cccs4)(N(C)C)CC3)c[nH]c2c1 [Example 67, 1-(3-(((6-Isopropyl-1H-indol-3-yl)methyl)(methyl)amino)propyl)-N,N-dimethyl-4-(thiophen-2-yl)piperidin-4-amine] | 93 | 90 | – | – | – |
| CN(CCN1CCC(c2ccccc2)(N(C)C)CC1)Cc1ccc2[nH]ccc2c1 [Example 68, 1-(2-(((1H-Indol-5-yl)methyl)(methyl)amino)ethyl)-N,N-dimethyl-4-phenylpiperidin-4-amine] | 93 | 65 | – | – | – |
| CN(C)C1(c2cccs2)CCN(CCNCc2ccc3[nH]ccc3c2)CC1 [Example 69, 1-(2-((1H-Indol-5-yl)methylamino)ethyl)-N,N-dimethyl-4-(thiophen-2-yl)piperidin-4-amine] | 96 | 90 | – | – | – |
| CN(CCN1CCC(c2ccccc2)(N(C)C)CC1)Cc1c(-c2ccc(F)cc2)[nH]c2ccccc12 [Example 70, 1-(2-(((2-(4-Fluorophenyl)-1H-indol-3-yl)methyl)(methyl)amino)ethyl)-N,N-dimethyl-4-phenylpiperidin-4-amine] | 98 | 80 | – | – | – |
| CN(CCN1CCC(c2ccccc2)(N(C)C)CC1)Cc1c(-c2ccccc2)[nH]c2ccccc12 [Example 71, N,N-Dimethyl-1-(2-(methyl((2-phenyl-1H-indol-3-yl)methyl)amino)ethyl)-4-phenylpipendin-4-amine] | 96 | 83 | – | – | – |
| CN(C)C1(c2cccs2)CCN(CCNCc2c[nH]c3ccc(Cl)cc23)CC1 [Example 72, 1-(2-((5-Chloro-1H-indol-3-yl)methylamino)ethyl)-N,N-dimethyl-4-(thiophen-2-yl)piperidin-4-amine] | – | – | – | 95 | 101 |
| CC(C)c1ccc2c(CN(C)CCN3CCC(c4ccccc4)(N(C)C)CC3)c[nH]c2c1 [Example 73, 1-(2-(((6-Isopropyl-1H-indol-3-yl)methyl)(methyl)amino)ethyl)-N,N-dimethyl-4-phenylpiperidin-4-amine] | – | – | 95 | 95 | – |
| CC(C)c1ccc2c(CNCCN3CCC(c4cccs4)(N(C)C)CC3)c[nH]c2c1 [Example 74, 1-(2-((6-Isopropyl-1H-indol-3-yl)methylamino)ethyl)-N,N-dimethyl-4-(thiophen-2-yl)pipendin-4-amine] | 99 | 97 | – | – | – |
